{"source": "paper PMC3116082", "about": "(Journal of the American Chemical Society, 2011)", "assay_type_in_all_cases": "biochemical", "key": {"[1]": {"molecular_target": "T1, ThiSG (thiazole synthase) (Bacillus subtilis, UniProt O31618)", "T1 sequence (O31618 1-256)": "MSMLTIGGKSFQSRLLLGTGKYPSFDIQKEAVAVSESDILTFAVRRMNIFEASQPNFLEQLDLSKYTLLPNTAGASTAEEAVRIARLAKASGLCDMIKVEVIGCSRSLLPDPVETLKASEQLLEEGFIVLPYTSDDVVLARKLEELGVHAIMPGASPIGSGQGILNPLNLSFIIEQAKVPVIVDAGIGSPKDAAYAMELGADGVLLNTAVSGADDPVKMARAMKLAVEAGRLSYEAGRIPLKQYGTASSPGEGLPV", "T1 sequence (O31617 1-66 partner)": "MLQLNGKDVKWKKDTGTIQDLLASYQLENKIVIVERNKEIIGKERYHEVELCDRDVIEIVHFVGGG", "assay": "thiazole reconstitution, strong anion exchange HPLC", "details": "without TenI; ThiF, NifS, ThiO, cysteine, ATP, glycine, DXP"}, "[2]": {"molecular_target": "thiamin phosphate synthase (ThiE) (Bacillus subtilis, UniProt P39594)", "sequence (P39594 whole entry)": "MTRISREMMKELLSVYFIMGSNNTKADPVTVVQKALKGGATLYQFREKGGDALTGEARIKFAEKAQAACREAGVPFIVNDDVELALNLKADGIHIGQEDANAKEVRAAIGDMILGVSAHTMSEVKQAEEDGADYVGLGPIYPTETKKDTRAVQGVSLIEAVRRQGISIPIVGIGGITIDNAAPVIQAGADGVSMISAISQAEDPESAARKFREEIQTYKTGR", "assay": "thiochrome assay, HPLC with fluorescence detection", "details": "co-substrate HMP-PP"}, "ThiO": {"molecular_target": "T2, ThiO (Bacillus subtilis, UniProt O31616)", "T2 sequence (O31616 1-369)": "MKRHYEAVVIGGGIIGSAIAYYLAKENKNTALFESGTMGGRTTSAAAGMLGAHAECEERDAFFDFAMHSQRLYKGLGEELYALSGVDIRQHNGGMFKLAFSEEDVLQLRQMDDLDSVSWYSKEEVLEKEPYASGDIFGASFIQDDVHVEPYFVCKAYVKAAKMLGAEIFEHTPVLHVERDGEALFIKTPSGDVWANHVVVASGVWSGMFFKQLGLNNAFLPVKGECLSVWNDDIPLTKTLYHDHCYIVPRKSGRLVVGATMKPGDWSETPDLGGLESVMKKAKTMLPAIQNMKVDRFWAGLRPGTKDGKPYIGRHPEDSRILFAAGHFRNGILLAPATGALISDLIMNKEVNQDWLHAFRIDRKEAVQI", "assay": "H2O2 formation, HRP-coupled absorbance at […] nm", "details": "0.1-10 mM glycine, without TenI"}}, "data": [{"molecule": "CC1=N[C@@H](C(=O)O)S/C1=C\\COP(=O)(O)O", "note": "[compound 14, (R,Z)-2-(2-carboxy-4-methylthiazol-5(2H)-ylidene)ethyl phosphate]", "values": [{"measurement": "thiazole reconstitution, strong anion exchange HPLC", "setting": "[1]", "value": "In the absence of TenI, cThz*-P was the only thiazole product formed"}]}, {"molecule": "Cc1ncsc1CCOP(=O)(O)O", "note": "[compound 15, 2-(4-methylthiazol-5-yl)ethyl phosphate]", "values": [{"measurement": "thiochrome assay, HPLC with fluorescence detection", "setting": "[2]", "value": "cThz-P and Thz-P are significantly better substrates than cThz*-P"}]}, {"molecule": "Cc1nc(C(=O)O)sc1CCOP(=O)(O)O", "note": "[compound 16, 2-(2-carboxy-4-methylthiazol-5-yl)ethyl phosphate]", "values": [{"measurement": "thiochrome assay, HPLC with fluorescence detection", "setting": "[2]", "value": "cThz-P and Thz-P are significantly better substrates than cThz*-P"}]}, {"molecule": "NCC(=O)O", "note": "[compound 19, glycine]", "values": [{"measurement": "H2O2 formation, HRP-coupled absorbance at 500 nm", "setting": "ThiO", "value": "the rate of hydrogen peroxide production with increasing concentrations of glycine was unaffected by TenI"}]}]}
